Assay results published in patent publication US20260021167A1, “COMPOSITIONS AND METHODS FOR TREATING OR PREVENTING NEURODEGENERATIVE DISEASES” (Delaware State University, priority 2022, published 2026).
“Also recorded” adds a separate entry of the source.

Legend:
SUMO-1 = assay: Western blot of SUMO-1 level in PFF-exposed N27p cells; type: cell-based, rat; settings: PFF exposure, compared with PFF only
Text: A) The RNA interference suppressed the expression level of SENP-1, which enhanced SUMO-1 level. […] One-Way ANOVA, Dunnett's test was applied for statistical analysis in comparison with PFF only (#). *: p<0.05, **: p<0.01, p<0.001 and n.s.: not significant.

SENP-1 on α-synuclein = biological target: T1, SENP-1 on α-synuclein (Mus musculus, UniProt P59110); assay: Western blot of SENP-1 on α-synuclein in α-synuclein IP tissue samples; type: in vivo; settings: PFF-injected mice, vs PFF only
T1 construct: from tissue; host or cells: mouse brain: midbrain and striatum, α-synuclein immunoprecipitates
T1 sequence (P59110 1-640): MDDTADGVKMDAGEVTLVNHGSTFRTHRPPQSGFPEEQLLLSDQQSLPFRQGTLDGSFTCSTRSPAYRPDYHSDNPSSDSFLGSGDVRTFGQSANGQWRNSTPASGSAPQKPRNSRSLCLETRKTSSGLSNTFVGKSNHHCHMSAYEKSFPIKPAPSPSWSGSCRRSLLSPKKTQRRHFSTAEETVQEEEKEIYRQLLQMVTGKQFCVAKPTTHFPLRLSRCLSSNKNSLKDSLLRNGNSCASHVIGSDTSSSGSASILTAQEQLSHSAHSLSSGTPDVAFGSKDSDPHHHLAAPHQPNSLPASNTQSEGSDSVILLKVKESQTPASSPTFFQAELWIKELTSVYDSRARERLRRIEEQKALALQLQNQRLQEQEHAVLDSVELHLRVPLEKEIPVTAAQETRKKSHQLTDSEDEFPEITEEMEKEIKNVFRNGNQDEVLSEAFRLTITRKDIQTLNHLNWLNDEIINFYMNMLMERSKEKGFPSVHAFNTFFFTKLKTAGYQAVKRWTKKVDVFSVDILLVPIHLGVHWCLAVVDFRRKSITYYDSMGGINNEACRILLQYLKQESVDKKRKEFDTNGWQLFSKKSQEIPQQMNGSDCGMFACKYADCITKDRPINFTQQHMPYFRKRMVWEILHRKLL
Description: A) In Western blots, Momordin reversed the toxicity from PFF injection in reducing phospho-α-synuclein and SENP-1 on α-synuclein in the MB and STR. […] A pathological marker, phosphorylated α-synuclein was increased by PFF injection, which was reversed by Momordin treatment in the MB (F) and the STR (G).
A mouse model of Parkinson's disease is C57BL/6 male or female mice (50% each) injected with 5 μg of mouse PFF at 12 months old, followed by a treatment below for 6-7 weeks: • 1) without PFF injection, followed by vehicle (control, n=7); • 2) PFF injection, followed by vehicle (PFF only: control, n=8); • 3) PFF injection, followed by daily 10 mg/kg Momordin gavage (n=7-8); • 4) PFF injection, followed by daily 50 mg/kg Momordin gavage (n=7-8).

N27 cells = assay: Cell viability (MTT) assay after PFF exposure; type: cell-based, rat; settings: N27 cells after PFF (1 μg/ml) exposure for 24 h; compared to PFF only control
Text: (§1) Cell Viability Assay. The MTT assay is a colorimetric assay that is based on the conversion of water-soluble MTT (3-(4,5-dimethylthiazol-2-yl)-2,5-diphenyltetrazolium bromide) into formazan crystal by mitochondrial dehydrogenase enzymes, soluble in 100% DMSO. The resulting solution is purple in color, and the color intensity is proportional to the viable cells for each well in a 96-well plate. A variety of SENP-1 inhibitors, such as SUMO-2 aldehyde, Momordin lc, streptonigrin, hinokiflavone, oleanolic acid and siRNA of SENP-1, were treated in N27 cells after PFF (1 μg/ml) exposure for 24 h. After adding 5 mM MTT dye to cells, the color intensity in MTT assays was measured using a spectrophotometer (SpectraMax M5e, Molecular devices, Dover, USA), at 570 nm with a reference wavelength of 630 nm. The cells were incubated with the MTT reagent (ab211091, Abcam) at 37° C. for 3 h, followed by solubilizing the formazan crystals in solution.
In this study, numerous commercially available SENP-1 inhibitors were tested for the recovery effects from preformed fibrils of alpha-synuclein (PFF)-induced PD models in vitro. […]

nigrostriatal neurons = assay: ROS in nigrostriatal neurons of PFF-injected mice; type: in vivo; settings: PFF injection, mouse brains
[1] = tested on: phosphorylated Ser-129-α-synuclein; assay: Immunohistochemistry of phosphorylated Ser-129-α-synuclein in brain sections of PFF-injected mice; type: in vivo, mouse
N27 dopaminergic cells = assay: Screening of SENP-1 inhibitors (LDH, MTT, ROS, Thioflavin-T) in PFF-induced PD model in vitro; type: cell-based, rat; settings: N27 dopaminergic cells after exposure to PFF for 24 hrs
Text: as §1
Cytotoxicity Assay. The lactate dehydrogenase (LDH) is a cytosolic enzyme that is released into the media during cellular stress and increased levels of cytotoxicity. The cytotoxicity assay was measured using reagents from the Pierce LDH Cytotoxicity Assay Kit (88954, Thermo). For the assay, 50 μL of media from each well after PFF exposure, followed by SENP-1 treatment, was put into wells of a new 96-well plate. The LDH reagents were prepared according to the protocol provided, and 50 μL of the LDH reagent was mixed into each well. The total 100 μL of media containing LDH and its reagent were incubated at 37° C. for 30 min, followed by the application of a stop solution. The mixture was analyzed using a spectrophotometer (SpectraMax M5e, Molecular devices) at 490 nm with a reference wavelength of 680 nm.
ROS Levels and Thioflavin-T Assessment. The reactive oxygen species (ROS) is a released byproduct during oxidative stress. On the other hand, thioflavin-T is an assay used to understand the level of protein aggregation that can be detrimental to cell survival. In order to assess the level of oxidative stress, all the SENP-1 inhibitors treated cells were incubated in media containing 5 μg/mL of the ROS reagent CellROX deep red reagent (C10422, Thermo Fisher Scientific) and 25 μg/mL of thioflavin-T reagent (CAS: 2390-54-7, Acros Organics) at 37° C. for 30 min. The cells were then washed 3 times with warm phosphate-buffered saline (PBS) without Ca^2+ or Mg^2+ (137 mM NaCl, 2.7 mM KCl, 4.3 mM Na2HPO4, and 1.47 mM KH2PO4), and several images from each well were collected using EVOS FL Cell Imaging Systems (Invitrogen, MA, USA). […] The intensity of red fluorescence corresponding to ROS levels and green labels corresponding to protein aggregation was analyzed by blinded raters using ImageJ. […]

[2] = both 10 and 50 mg/kg oral, PFF-injected mice, vs PFF only

`CC1(C)CC[C@]2(C(=O)O)CC[C@]3(C)C(=CC[C@@H]4[C@@]5(C)CC[C@H](O[C@@H]6O[C@H](C(=O)O)[C@@H](O)[C@H](O[C@@H]7OC[C@@H](O)[C@H](O)[C@H]7O)[C@H]6O)C(C)(C)[C@@H]5CC[C@]43C)[C@@H]2C1` [Momordin lc] was tested, and the “level of SUMO-1 (Western blot)” value (SUMO-1) was “increased level of SUMO-1”, the “PFF-induced SENP-1 on α-synuclein in the MB (α-synuclein IP)” value (SENP-1 on α-synuclein; midbrain) was “reduced” and the “PFF-induced SENP-1 on α-synuclein in the STR (α-synuclein IP)” value (SENP-1 on α-synuclein; striatum) was “reduced”. For the same molecule, the “cell viability from PFF-mediated toxicity (MTT assay)” value (N27 cells) was “significantly enhanced the cell viability”, the “level of ROS in nigrostriatal neurons” value (nigrostriatal neurons) was “alleviated the level of ROS” and the “accumulation of phosphorylated alpha-synuclein in multiple brain regions” value ([1]; 10 or 50 mg/kg oral for 6-7 weeks, 15-16 month-old mice, 3-4 months after PFF injection) was “sufficient to prevent the accumulation; also recorded: effective to prevent the accumulation”. For the same molecule, the “level of phospho-α-synuclein in the SNc (IHC)” value [1, 2] was “significantly reduced”, the “level of phospho-α-synuclein in the striatum (IHC)” value [1, 2] was “significantly reduced” and the “efficacy in preventing protein aggregation-mediated damage and reversing PFF-induced damage (LDH, MTT, ROS, Thioflavin-T assays)” value (N27 dopaminergic cells) was “clearly efficacious”.
